Laboratory results taken from patent publication US20250003008A1, “METHODS FOR TREATMENT OF CANCER” (The Johns Hopkins University, priority 2021, published 2025).
Like-named read-outs stand apart in the source and are kept apart here.

Experiments:
[1] = Method: PrE0505, a phase 2 single arm multicenter study, enrolled human patients with previously untreated unresectable MPM (NCT02899195, FIG. 1). […] Patients with stable or responding tumors after concurrent therapy, continued on maintenance durvalumab for a maximum duration of one year from the first study treatment. A protocol-defined safety review was performed after enrollment of the first 6 and 15 patients. Pre-specified dose-limiting toxicities during the safety run-in period included any immune-mediated adverse event of ≥grade 4 or any non-resolving immune-mediated adverse event of ≥grade 3 during the first two cycles of therapy.
Imaging was performed every 6 weeks during the concurrent phase of treatment and every 9 weeks during maintenance durvalumab. Best objective response was evaluated by RECIST Version 1.1 criteria modified for mesothelioma. Toxicity was determined using the CTCAE Version 4.03 criteria.
Secondary objectives included safety and tolerability of durvalumab and durvalumab in combination with chemotherapy in subjects with malignant pleural mesothelioma, percentage of patients progression-free at 24 weeks from the time of registration (response coded based on modified RECIST 1.1 criteria for mesothelioma), progression-free survival-measured from the time of study registration until radiologic progression, clinical progression or death, best objective response rate with evaluation continued up to 1 year (response coded based on modified RECIST Version 1.1 criteria for mesothelioma). Exploratory objectives included assessment of tumor baseline PD-L1 expression, the genomic and neoantigen landscape of tumors, dynamics of circulating cell free tumor DNA and other blood-based biomarkers.

[2] = system: malignant pleural mesothelioma; details: historical control, phase 3 study; cited from earlier work
[3] = of the patients who received that agent within the regimen

Compound | patients who received a dose reduction due to toxicity [1, 3] | other results
N.N.O=C([O-])C1(C(=O)[O-])CCC1.[Pt+2] [carboplatin] | 12% | –
N.N.[Cl][Pt][Cl] [cisplatin] | – | survival [2]: 9.3 months
Nc1nc2[nH]cc(CCc3ccc(C(=O)N[C@@H](CCC(=O)O)C(=O)O)cc3)c2c(=O)[nH]1 [pemetrexed] | – | patients who received a dose reduction due to toxicity ([1]; human, in vivo): 2%
durvalumab | no patients | –
